The values below come from US8372991B2, “Trisubstituted thiophenes that modulate intracellular calcium” (Calcimedica, Inc., priority 2008, dated 2013).

Usually IC50 stands for the concentration needed to halve the response being measured.

The assay deals with JR251 or RBL cells. As to the kind of experiment: Store-operated calcium entry IC50 in either JR251 or RBL cells. In kind it is cell-based. Here is the method: The day prior to performing the assay Orai1/STIM1 stable cells were plated in 50 μL of complete medium at 90-95% confluence in a 384 well plate. Cells were grown at 37° C./6% CO2 overnight. On the day of the assay, 1.5 μM fluo-4-AM (Invitrogen) in complete medium was added to the cells, which were then incubated for 1 hour at RT. Cells were washed once in Ca^2+-free HBSS (Hank's buffered saline solution) and 35 μl of Ca^2+-free HBSS was added to each well. Test compounds were added to wells in a 10 μL Ca^2+-free HBSS solution, prepared at 4.5× the desired final concentration, and incubated for 30 minutes at RT. The initial baseline fluorescence signal was then measured with a FLIPR^384 (Molecular Devices) plate reader. Calcium entry was initiated by adding 5 μl of 10× CaCl2 (10 mM) in HBSS, and changes in cellular fluorescence were measured with the FLIPR^384 plate reader. In each well, the magnitude of the fluorescence signal as a result of calcium entry into the cell was determined by calculating the difference between the peak fluorescence signal measured after calcium addition and the initial baseline fluorescence signal (designated Peak-Basal). IC50 values were typically calculated as the concentration that inhibited 50% of the Peak-Basal signal (Table A).
The day prior to performing the assay, RBL-2H3 cells are plated in 50 μL of complete medium in a 384 well plate. Cells are grown at 37° C./6% CO2 overnight and grow to 50-60% confluence by the next day. On the assay day, 1.5 μM Fluo-4-AM dye (Invitrogen) in complete medium is added and incubated for 1 hour at RT. Cells are washed twice in Ca^2+-free HBSS buffer and 35 μL Ca^2+-free HBSS buffer is added to each well. 10 μL of a test compound prepared in a Ca^2+-free HBSS solution at 4.5× of the desired concentration is added to a well and incubated for 5 minutes at RT. 10 μL of thapsigargin prepared in a Ca^2+-free HBSS solution at 5.5× of the desired concentration (5.5 uM) is added to each well and incubated for an additional 25 minutes. The initial baseline fluorescence signal is measured with a FLIPR^384 (Molecular Devices) plate reader. 5 μL of 12× calcium in HBSS (12 mM) is added and changes in cellular fluorescence are measured with the FLIPR^384 plate reader. In each well, the change in the fluorescent signal as a function of time due to calcium entry into the cell is determined by calculating the difference between the fluorescent signal measured 7 seconds after calcium addition and the initial baseline fluorescence signal at time zero (t=0). This parameter is designated Upslope. The IC50 value is calculated as the concentration at which 50% of the Upslope is inhibited.
For `O=C(Nc1scc(-c2ccc3nonc3c2)c1C(=O)O)c1cc2ccccc2o1` [4-(benzo[c][1,2,5]oxadiazol-5-yl)-2-(benzofuran-2-carboxamido)thiophene-3-carboxylic acid], the IC50 was less than 10 µM. Consider `CCOc1ccc(-c2csc(NC(=O)c3cc4ccccc4o3)c2C(=O)O)cn1` [2-(benzofuran-2-carboxamido)-4-(6-ethoxypyridin-3-yl)thiophene-3-carboxylic acid], for which the IC50 is less than 10 µM.

As to `Cc1nc(C)c(-c2csc(NC(=O)c3cc4ccccc4o3)c2C(=O)O)s1` [2-(benzofuran-2-carboxamido)-4-(2,4-dimethylthiazol-5-yl)thiophene-3-carboxylic acid], the IC50 is less than 10 µM. On to `Cc1ccc(-c2csc(NC(=O)c3ccccc3)c2C(=O)O)o1` [2-benzamido-4-(5-methylfuran-2-yl)thiophene-3-carboxylic acid], for which the 50% inhibitory concentration (IC50) was less than 10 µM.

On to `O=C(Nc1scc(-c2ccc(Cl)nc2)c1C(=O)O)c1cccc(F)c1` [4-(6-chloropyridin-3-yl)-2-(3-fluorobenzamido)thiophene-3-carboxylic acid], for which the IC50 is less than 10 µM. With `Cc1nnsc1C(=O)Nc1scc(-c2c(C)nn(-c3ccccc3)c2C)c1C(=O)O` [4-(3,5-dimethyl-1-phenyl-1H-pyrazol-4-yl)-2-(4-methyl-1,2,3-thiadiazole-5-carboxamido)thiophene-3-carboxylic acid] the figure was less than 10 µM. Then `Cn1cnc(C(=O)Nc2scc(-c3cnn(-c4ccc(Cl)cc4)c3)c2C(=O)O)c1` [4-(1-(4-chlorophenyl)-1H-pyrazol-4-yl)-2-(1-methyl-1H-imidazole-4-carboxamido)thiophene-3-carboxylic acid], with less than 10 µM; and `O=C(Nc1scc(-c2cnn(-c3ccc(Cl)cc3)c2)c1C(=O)O)c1cncnc1` [4-(1-(4-chlorophenyl)-1H-pyrazol-4-yl)-2-(pyrimidine-5-carboxamido)thiophene-3-carboxylic acid], with less than 10 µM.

With `O=C(Nc1scc(-c2ccc3scnc3c2)c1C(=O)O)c1cc2ccccc2o1` [4-(benzo[d]thiazol-5-yl)-2-(benzofuran-2-carboxamido)thiophene-3-carboxylic acid], the IC50 was less than 10 µM. Then `Cc1nc(N2CCCCC2)ncc1-c1csc(NC(=O)c2cncnc2)c1C(=O)O` [4-(4-methyl-2-(piperidin-1-yl)pyrimidin-5-yl)-2-(pyrimidine-5-carboxamido)thiophene-3-carboxylic acid], with less than 10 µM. With `Cc1csc(-c2csc(NC(=O)c3cc4ccccc4o3)c2C(=O)O)n1` [2-(benzofuran-2-carboxamido)-4-(4-methylthiazol-2-yl)thiophene-3-carboxylic acid] the figure was less than 10 µM. Take `Cc1cc(-c2csc(NC(=O)c3snnc3C)c2C(=O)O)n(C)n1` [4-(1,3-dimethyl-1H-pyrazol-5-yl)-2-(4-methyl-1,2,3-thiadiazole-5-carboxamido)thiophene-3-carboxylic acid]: the IC50 was less than 10 µM. With `Cc1ccc(-c2csc(NC(=O)c3cc4ccccc4o3)c2C(=O)O)c2ccccc12` [2-(benzofuran-2-carboxamido)-4-(4-methylnaphthalen-1-yl)thiophene-3-carboxylic acid] the figure was less than 10 µM. As for `Cc1nc(N2CCCCC2)ncc1-c1csc(NC(=O)c2snnc2C)c1C(=O)O` [2-(4-methyl-1,2,3-thiadiazole-5-carboxamido)-4-(4-methyl-2-(piperidin-1-yl)pyrimidin-5-yl)thiophene-3-carboxylic acid], the IC50 is less than 10 µM. Then `O=C(Nc1scc(-c2ncco2)c1C(=O)O)c1ccc(F)cc1` [2-(4-fluorobenzamido)-4-(oxazol-2-yl)thiophene-3-carboxylic acid], with less than 10 µM.

As to `O=C(Nc1scc(-c2nc3ccccc3n2C(F)F)c1C(=O)O)c1cc2ccccc2o1` [2-(benzofuran-2-carboxamido)-4-(1-(difluoromethyl)-1H-benzo[d]imidazol-2-yl)thiophene-3-carboxylic acid], the IC50 is less than 10 µM.

`O=C(Nc1scc(-c2c[nH]c3ccccc23)c1C(=O)O)c1cccc(F)c1` [2-(3-fluorobenzamido)-4-(1H-indol-3-yl)thiophene-3-carboxylic acid]: the IC50 was less than 10 µM. With `O=C(Nc1scc(-c2ccc(Cl)s2)c1C(=O)O)c1cc2ccccc2o1` [5′-(benzofuran-2-carboxamido)-5-chloro-2,3′-bithiophene-4′-carboxylic acid] the figure was less than 10 µM; with `O=C(Nc1scc(-c2nc3ccccc3n2C(F)F)c1C(=O)O)c1cccc(F)c1` [4-(1-(difluoromethyl)-1H-benzo[d]imidazol-2-yl)-2-(3-fluorobenzamido)thiophene-3-carboxylic acid], less than 10 µM; with `O=C(CCc1cccc(F)c1)Nc1scc(-c2ccc(Cl)nc2)c1C(=O)O` [4-(6-chloropyridin-3-yl)-2-(3-(3-fluorophenyl)propanamido)thiophene-3-carboxylic acid], less than 10 µM. Then `Cn1nc(C(F)(F)F)cc1-c1csc(NC(=O)c2cc3ccccc3o2)c1C(=O)O` [2-(benzofuran-2-carboxamido)-4-(1-methyl-3-(trifluoromethyl)-1H-pyrazol-5-yl)thiophene-3-carboxylic acid], with less than 10 µM; and `Cc1nc(N2CCCCC2)ncc1-c1csc(NC(=O)c2cnn(C)c2Cl)c1C(=O)O` [2-(5-chloro-1-methyl-1H-pyrazole-4-carboxamido)-4-(4-methyl-2-(piperidin-1-yl)pyrimidin-5-yl)thiophene-3-carboxylic acid], with less than 10 µM. Turning to `Cc1ccc(-c2csc(NC(=O)c3cc4ccccc4o3)c2C(=O)O)cn1` [2-(benzofuran-2-carboxamido)-4-(6-methylpyridin-3-yl)thiophene-3-carboxylic acid], the IC50 is less than 10 µM. Then `O=C(Nc1cc(-c2nc3ccccc3[nH]2)cs1)c1cccc(F)c1` [N-(4-(1H-benzo[d]imidazol-2-yl)thiophen-2-yl)-3-fluorobenzamide], with less than 10 µM; and `Cn1ncc(C(=O)Nc2scc(-c3cnn(-c4ccc(Cl)cc4)c3)c2C(=O)O)c1Cl` [2-(5-chloro-1-methyl-1H-pyrazole-4-carboxamido)-4-(1-(4-chlorophenyl)-1H-pyrazol-4-yl)thiophene-3-carboxylic acid], with less than 10 µM. Then `O=C(Nc1scc(-c2ccc3ccccc3c2)c1C(=O)O)c1cc2ccccc2o1` [2-(benzofuran-2-carboxamido)-4-(naphthalen-2-yl)thiophene-3-carboxylic acid], with less than 10 µM; and `O=C(Nc1scc(-c2cnc(C(F)(F)F)nc2)c1C(=O)O)c1cc2ccccc2o1` [2-(benzofuran-2-carboxamido)-4-(2-(trifluoromethyl)pyrimidin-5-yl)thiophene-3-carboxylic acid], with less than 10 µM. With `O=C(Nc1scc(-c2cc3ccccc3s2)c1C(=O)O)c1cc2ccccc2o1` [4-(benzo[b]thiophen-2-yl)-2-(benzofuran-2-carboxamido)thiophene-3-carboxylic acid] the figure was less than 10 µM. On to `O=C(Nc1scc(-c2ccc3nccnc3c2)c1C(=O)O)c1cc2ccccc2o1` [2-(benzofuran-2-carboxamido)-4-(quinoxalin-6-yl)thiophene-3-carboxylic acid], for which the IC50 was less than 10 µM. Then `Cc1ccc(-c2csc(NC(=O)c3cc4ccccc4o3)c2C(=O)O)s1` [5′-(benzofuran-2-carboxamido)-5-methyl-2,3′-bithiophene-4′-carboxylic acid], with less than 10 µM; and `Cc1cc(-c2csc(NC(=O)c3cnn(C)c3Cl)c2C(=O)O)n(C)n1` [2-(5-chloro-1-methyl-1H-pyrazole-4-carboxamido)-4-(1,3-dimethyl-1H-pyrazol-5-yl)thiophene-3-carboxylic acid], with less than 10 µM; and `O=C(Nc1scc(-c2ccnc(F)c2)c1C(=O)O)c1cc2ccccc2o1` [2-(benzofuran-2-carboxamido)-4-(2-fluoropyridin-4-yl)thiophene-3-carboxylic acid], with less than 10 µM. As for `Cn1ccc2cc(-c3csc(NC(=O)c4cc5ccccc5o4)c3C(=O)O)ccc21` [2-(benzofuran-2-carboxamido)-4-(1-methyl-1H-indol-5-yl)thiophene-3-carboxylic acid], the IC50 was less than 10 µM. Then `Cc1ccc(-c2csc(NC(=O)c3cccc(F)c3)c2C(=O)O)s1` [5′-(3-fluorobenzamido)-5-methyl-2,3′-bithiophene-4′-carboxylic acid], with less than 10 µM.
